Values of other authors in US11872302B2, “Product for dyeing keratinous material, containing aminosilicone, a chromophoric compound and ester oil” (Henkel AG & Co. KGaA, priority 2019, dated 2024).

Conditions: 25° C.

| SMILES | solubility in water | solubility in water, in words |
| --- | --- | --- |
| CCN(Cc1cccc(S(=O)(=O)O)c1)c1ccc(C(=C2C=CC(=[N+](CC)Cc3cccc(S(=O)(=O)O)c3)C=C2)c2ccccc2S(=O)(=O)[O-])cc1 [Acid Blue 9] | more than 20 wt. % |  |
| O=S(=O)(O)c1ccc(N=Nc2c(O)ccc3ccccc23)cc1 [Acid Orange 7, 4-[(2-hydroxy-1-naphthyl)azo]benzene sulphonate] | more than 7 g/L |  |
| O=[N+]([O-])c1cc([N+](=O)[O-])c2ccc(S(=O)(=O)O)cc2c1O [Acid Yellow 9, 8-hydroxy-5,7-dinitro-2-naphthalenesulfonic acid] | above 40 g/L |  |
| O=C(O)C1=NN(c2ccc(S(=O)(=O)O)cc2)C(=O)C1N=Nc1ccc(S(=O)(=O)O)cc1 (stereo not shown) [Acid Yellow 23, 4,5-dihydro-5-oxo-1-(4-sulfophenyl)-4-((4-sulfophenyl)azo)-1H-pyrazole-3-carboxylic acid] |  | highly soluble in water |
